From US20260193226A1, “MICROBIOCIDAL TETRAHYDROISOQUINOLINE DERIVATIVES” (SYNGENTA CROP PROTECTION AG, priority 2022, published 2026)

How the values were obtained:
[1] = system: Mycosphaerella arachidis (Cercospora arachidicola); test: Mycosphaerella arachidis (Cercospora arachidicola) / liquid culture (early leaf spot); assay type: cell-based; settings: compared to untreated control
Procedure: (§1) Example B9: Mycosphaerella arachidis (Cercospora arachidicola)/Liquid Culture (Early Leaf Spot) Conidia of the fungus from cryogenic storage are directly mixed into nutrient broth (PDB potato dextrose broth). After placing a (DMSO) solution of test compound into a microtiter plate (96-well format), the nutrient broth containing the fungal spores is added. The test plates are incubated at 24° C. and the inhibition of growth is determined photometrically 4 to 5 days after application.

[2] = system: Glomerella lagenarium (Colletotrichum lagenarium); test: Glomerella lagenarium (Colletotrichum lagenarium) / liquid culture (anthracnose); assay type: cell-based; settings: Colletotrichum orbiculare, compared to untreated control
Procedure: as §1, with “B3: Glomerella lagenarium (Colletotrichum lagenarium)/Liquid” for “B9: Mycosphaerella arachidis (Cercospora arachidicola)/Liquid”, “(Anthracnose)” for “(Early Leaf Spot)”, “measured” for “determined”, “photometrically 3 to” for “photometrically”, “4” for “4 to 5”

[3] = system: Monographella nivalis (Microdochium nivale); test: Monographella nivalis (Microdochium nivale) / liquid culture (foot rot cereals); assay type: cell-based; settings: compared to untreated control
Procedure: as §1, with “B8: Monographella nivalis (Microdochium nivale)/Liquid” for “B9: Mycosphaerella arachidis (Cercospora arachidicola)/Liquid”, “(Foot Rot Cereals)” for “(Early Leaf Spot)”

[4] = system: Mycosphaerella graminicola (Septoria tritici); test: Mycosphaerella graminicola (Septoria tritici) / liquid culture (Septoria blotch); assay type: cell-based; settings: Zymoseptoria tritici, compared to untreated control
Procedure: as §1, with “B15:” for “B9:”, “graminicola (Septoria tritici)/Liquid” for “arachidis (Cercospora arachidicola)/Liquid”, “(Septoria Blotch)” for “(Early Leaf Spot)”

[5] = system: Pyrenophora teres; test: Pyrenophora teres / barley / leaf disc preventative (net blotch); assay type: in vivo; settings: foliar, compared to untreated control
Procedure: Example B12: Pyrenophora teres/Barley/Leaf Disc Preventative (Net Blotch) Barley leaf segments cv. Hasso are placed on agar in a multiwell plate (24-well format) and sprayed with the formulated test compound diluted in water. The leaf segments are inoculated with a spore suspension of the fungus 2 days after application. The inoculated leaf segments are incubated at 20° C. and 65% rh under a light regime of 12 h light/12 h darkness in a climate cabinet and the activity of a compound is assessed as disease control compared to untreated when an appropriate level of disease damage appears in untreated check leaf segments (5 to 7 days after application).

[6] = system: Alternaria solani; test: Alternaria solani / tomato / leaf disc (early blight); assay type: in vivo; settings: foliar, compared to untreated control
Procedure: Example B1: Alternaria solani/Tomato/Leaf Disc (Early Blight) Tomato leaf disks cv. Baby are placed on agar in multiwell plates (24-well format) and sprayed with the formulated test compound diluted in water. The leaf disks are inoculated with a spore suspension of the fungus 2 days after application. The inoculated leaf disks are incubated at 23° C./21° C.

[7] = system: Phytophthora infestans; assay type: in vivo; settings: 200 ppm; tomato leaf disc preventative; compared to untreated control

| Compound | inhibition of growth at 20 ppm [1] [%] | inhibition of growth at 20 ppm [2] [%] | inhibition of growth at 20 ppm [3] [%] | inhibition of growth at 20 ppm [4] [%] | pest or weed control at 200 ppm [5] [%] | pest or weed control at 200 ppm [6] [%] | control of Phytophthora infestans [7] |
| --- | --- | --- | --- | --- | --- | --- | --- |
| Cc1c([C@H]2CN(C(=O)OCCC3CCCCC3)[C@@H](C)c3ccccc32)cnn1C (racemic) [Compound P-16, 2-cyclohexylethyl rac-(1S,4S)-4-(1,5-dimethylpyrazol-4-yl)-1-methyl-3,4-dihydro-1H-isoquinoline-2-carboxylate] | ≥ 80 | ≥ 80 | ≥ 80 | ≥ 80 | – | – | – |
| Cc1c([C@H]2CN(C(=O)CCCCCC(F)(F)F)[C@@H](C)c3ccccc32)cnn1C (racemic) [Compound P-29, 7,7,7-trifluoro-1-[rac-(1S,4S)-4-(1,5-dimethylpyrazol-4-yl)-1-methyl-3,4-dihydro-1H-isoquinolin-2-yl]heptan-1-one] | ≥ 80 | – | ≥ 80 | ≥ 80 | ≥ 80 | ≥ 80 | – |
| Cc1c(C2CN(C(=O)NCCCCC(F)F)Cc3ccccc32)cnn1C (centres unmarked) [Compound P-50, N-(5,5-difluoropentyl)-4-(1,5-dimethylpyrazol-4-yl)-3,4-dihydro-1H-isoquinoline-2-carboxamide] | – | – | – | ≥ 80 | ≥ 80 | – | – |
| CCCCCCCC(=O)N1Cc2ccccc2C(c2cnn(C)c2C)C1 (centres unmarked) [Compound P-10, 1-[4-(1,5-dimethylpyrazol-4-yl)-3,4-dihydro-1H-isoquinolin-2-yl]octan-1-one] | ≥ 80 | ≥ 80 | ≥ 80 | ≥ 80 | – | – | – |
| CCCCCCC(=O)N1Cc2ccccc2C(c2cnn(C)c2C)C1 (centres unmarked) [Compound P-4, 1-[4-(1,5-dimethylpyrazol-4-yl)-3,4-dihydro-1H-isoquinolin-2-yl]heptan-1-one] | ≥ 80 | ≥ 80 | ≥ 80 | ≥ 80 | – | ≥ 80 | – |
| Cc1c([C@H]2CN(C(=O)CCc3ccc(F)cc3F)[C@@H](C)c3ccccc32)cnn1C (racemic) [Compound P-45, 3-(2,4-difluorophenyl)-1-[rac-(1S,4S)-4-(1,5-dimethylpyrazol-4-yl)-1-methyl-3,4-dihydro-1H-isoquinolin-2-yl]propan-1-one] | ≥ 80 | ≥ 80 | ≥ 80 | ≥ 80 | ≥ 80 | ≥ 80 | – |
| Cc1c(C2CN(C(=O)OCCC3CCCCC3)Cc3ccccc32)cnn1C (centres unmarked) [Compound P-2, 2-cyclohexylethyl 4-(1,5-dimethylpyrazol-4-yl)-3,4-dihydro-1H-isoquinoline-2-carboxylate] | ≥ 80 | ≥ 80 | ≥ 80 | ≥ 80 | – | – | – |
| CCCCCNC(=O)N1Cc2ccccc2C(c2cnn(C)c2C)C1 (centres unmarked) [Compound P-31, 4-(1,5-dimethylpyrazol-4-yl)-N-pentyl-3,4-dihydro-1H-isoquinoline-2-carboxamide] | ≥ 80 | – | – | ≥ 80 | ≥ 80 | ≥ 80 | – |
| CCCCCCC(=O)N1C[C@H](c2cnn(C)c2C)c2ccccc2[C@@H]1C (racemic) [Compound P-11, 1-[rac-(1S,4S)-4-(1,5-dimethylpyrazol-4-yl)-1-methyl-3,4-dihydro-1H-isoquinolin-2-yl]heptan-1-one] | ≥ 80 | ≥ 80 | ≥ 80 | ≥ 80 | ≥ 80 | ≥ 80 | – |
| Cc1c(C2CN(C(=O)NCCCCCF)Cc3ccccc32)cnn1C (centres unmarked) [Compound P-49, 4-(1,5-dimethylpyrazol-4-yl)-N-(5-fluoropentyl)-3,4-dihydro-1H-isoquinoline-2-carboxamide] | – | – | – | ≥ 80 | ≥ 80 | – | – |
| Cc1c([C@H]2CN(C(=O)CCCCC3CC3)[C@@H](C)c3ccccc32)cnn1C [Compound P-47, 5-cyclopropyl-1-[(1S,4S)-4-(1,5-dimethylpyrazol-4-yl)-1-methyl-3,4-dihydro-1H-isoquinolin-2-yl]pentan-1-one] | ≥ 80 | ≥ 80 | ≥ 80 | ≥ 80 | ≥ 80 | ≥ 80 | – |
| Cc1c([C@H]2CN(C(=O)CCCCC(F)F)[C@@H](C)c3ccccc32)cnn1C (racemic) [Compound P-27, 6,6-difluoro-1-[rac-(1S,4S)-4-(1,5-dimethylpyrazol-4-yl)-1-methyl-3,4-dihydro-1H-isoquinolin-2-yl]hexan-1-one] | ≥ 80 | – | ≥ 80 | ≥ 80 | ≥ 80 | – | – |
| CCCCCOC(=O)N1C[C@H](c2cnn(C)c2C)c2ccccc2[C@@H]1C (racemic) [Compound P-28, pentyl rac-(1S,4S)-4-(1,5-dimethylpyrazol-4-yl)-1-methyl-3,4-dihydro-1H-isoquinoline-2-carboxylate] | ≥ 80 | ≥ 80 | ≥ 80 | ≥ 80 | – | ≥ 80 | – |
| CCCCCNC(=O)N1C[C@H](c2cnn(C)c2C)c2ccccc2[C@@H]1C (racemic) [Compound P-43, rac-(1S,4S)-4-(1,5-dimethylpyrazol-4-yl)-1-methyl-N-pentyl-3,4-dihydro-1H-isoquinoline-2-carboxamide] | ≥ 80 | – | ≥ 80 | ≥ 80 | ≥ 80 | – | – |
| Cc1c(C2CN(C(=O)CCC3CCCC3)Cc3ccccc32)cnn1C (centres unmarked) [Compound P-17, 3-cyclopentyl-1-[4-(1,5-dimethylpyrazol-4-yl)-3,4-dihydro-1H-isoquinolin-2-yl]propan-1-one] | – | – | – | ≥ 80 | – | – | at least 80% |
| Cc1c(C2CN(C(=O)NCCC3CCCCC3)Cc3ccccc32)cnn1C (centres unmarked) [Compound P-42, N-(2-cyclohexylethyl)-4-(1,5-dimethylpyrazol-4-yl)-3,4-dihydro-1H-isoquinoline-2-carboxamide] | ≥ 80 | – | ≥ 80 | ≥ 80 | – | – | – |
| Cc1c(C2CN(C(=O)CCc3ccc(Cl)cc3)Cc3ccccc32)cnn1C (centres unmarked) [Compound P-22, 3-(4-chlorophenyl)-1-[4-(1,5-dimethylpyrazol-4-yl)-3,4-dihydro-1H-isoquinolin-2-yl]propan-1-one] | ≥ 80 | – | – | ≥ 80 | ≥ 80 | ≥ 80 | – |
| Cc1c(C2CN(C(=O)NCC3CCCCC3)Cc3ccccc32)cnn1C (centres unmarked) [Compound P-36, N-(cyclohexylmethyl)-4-(1,5-dimethylpyrazol-4-yl)-3,4-dihydro-1H-isoquinoline-2-carboxamide] | – | – | – | ≥ 80 | ≥ 80 | – | – |
| Cc1c(C2CN(C(=O)CCCCCC(F)(F)F)Cc3ccccc32)cnn1C (centres unmarked) [Compound P-30, 1-[4-(1,5-dimethylpyrazol-4-yl)-3,4-dihydro-1H-isoquinolin-2-yl]-7,7,7-trifluoro-heptan-1-one] | ≥ 80 | – | ≥ 80 | ≥ 80 | – | – | – |
| Cc1c(C2CN(C(=O)CCc3ccc(F)cc3)Cc3ccccc32)cnn1C (centres unmarked) [Compound P-7, 1-[4-(1,5-dimethylpyrazol-4-yl)-3,4-dihydro-1H-isoquinolin-2-yl]-3-(4-fluorophenyl)propan-1-one] | – | – | – | ≥ 80 | – | ≥ 80 | – |
